Test results taken from patent US7396944B2, “Thiophene derivatives, their manufacture and use as pharmaceutical agents” (Hoffmann-La Roche Inc., priority 2004, dated 2008).

molecular target: T1, recombinant HDAC-1 (Homo sapiens, UniProt Q13547); test: HDAC biochemical quench assay; details: recombinant HDAC-1 purified from HEK 293 cells, histone H4 peptide substrate 1 μM, 90 min
T1 construct: made in house; host or cells: HEK 293 cells (ATCC-No. CRL 1573)
Description: The function of histone deacetylase (HDAC) is the deacetylation of lysines in e.g. histone H4. A peptide of 17 amino acids derived from histone H4 was labeled with tetramethylrhodamine (TAMRA, fluorophore, Invitrogen) at the C-terminus and QSY-7™ (quencher dye, Invitrogen) at the N-terminus and was used as a substrate (TAMRA-first 17 aa of histone H4-QSY7). Following deacetylation by HDAC, the enzyme Lys C is able to cleave the peptide after lysine. […] Inhibition of HDAC by compounds results in low signals because Lys C could not cleave the substrate and the quench effect persists.
For dose response curves, 10 concentrations were diluted 1:3 starting at 30 μM. 10 μl compound dilution were put into each well of a 384 well plate. 10 μl HDAC were added (recombinant HDAC-1 purified from HEK 293 cells (human embryonic kidney cell line transformed by Adenovirus 5 fragments, ATCC-No. CRL 1573); enzyme activity has to be assessed for each preparation). 10 μl peptide substrate was added (1 μM final concentration, derived from 1 mM stock solution diluted 1:1000 in test buffer). After 90 min incubation at room temperature, the reaction was stopped by addition of 20 μl test buffer including 3 μg/ml Lys C and 0.075% Sodium Dodecyl Sulfate (SDS). After overnight incubation the fluorescence signal of TAMRA was measured (Victor 2 from Wallac, absorption 544 nm, emission 590 nm). The O.D. of DMSO (dimethylsulfoxide)-treated control wells is 100%, the % inhibition of compound treated wells is calculated in relation to 100%. Based on 10 concentrations an IC50 curve is generated by using XLfit3 (XLfit software (ID Business Solution Ltd., Guilford, Surrey, UK)).
Test buffer used: a mixture of 10 mM 4-(2-hydroxyethyl)-1-piperazineethanesulfonic acid (HEPES) pH8, 10 mM NaCl, 10% Glycerol, 0.005% Triton X100™, 0.1 mM ethylenediaminetetraacetic acid (EDTA), 0.1 mM Tris(2-carboxyethyl)phosphine (TCEP). Used plates: 384 well plates (black, Greiner, 781077).

T1 sequence (Q13547 whole entry, species assumed): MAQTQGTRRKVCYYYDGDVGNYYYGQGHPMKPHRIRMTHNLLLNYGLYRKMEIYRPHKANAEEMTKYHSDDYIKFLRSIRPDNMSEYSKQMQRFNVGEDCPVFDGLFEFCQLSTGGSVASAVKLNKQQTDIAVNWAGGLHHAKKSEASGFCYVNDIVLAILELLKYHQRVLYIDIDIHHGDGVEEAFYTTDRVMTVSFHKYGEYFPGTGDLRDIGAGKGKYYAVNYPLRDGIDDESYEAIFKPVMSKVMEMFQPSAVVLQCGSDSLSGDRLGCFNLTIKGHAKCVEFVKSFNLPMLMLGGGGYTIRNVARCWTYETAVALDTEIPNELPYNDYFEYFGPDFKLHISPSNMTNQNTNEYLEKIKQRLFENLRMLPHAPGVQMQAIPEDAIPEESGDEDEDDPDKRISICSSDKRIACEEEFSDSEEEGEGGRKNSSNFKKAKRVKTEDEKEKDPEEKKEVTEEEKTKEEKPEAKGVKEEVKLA

| SMILES | IC50 |
| --- | --- |
| CC(NC(=O)c1ccc(C(=O)NO)s1)c1cccc(-c2ccc(F)cc2)c1 (stereo not drawn) [Example 2-8, Thiophene-2,5-dicarboxylic acid 2-{[1-(4′-fluoro-biphenyl-3-yl)-ethyl]-amide} 5-hydroxyamide] | 2.52 nM |
| CC(NC(=O)c1ccc(C(=O)NO)s1)c1cccc(-c2cn[nH]c2)c1 (stereo not drawn) [Example 2-18, Thiophene-2,5-dicarboxylic acid 2-hydroxyamide 5-({1-[3-(1H-pyrazol-4-yl)-phenyl]-ethyl}-amide)] | < 3 nM |
| CC(NC(=O)c1ccc(C(=O)NO)s1)c1ccc(-c2ccc(N(C)C)cc2)cc1 (stereo not drawn) [Example 1-2, Thiophene-2,5-dicarboxylic acid 2-{[1-(4′-dimethylamino-biphenyl-4-yl)-ethyl]-amide} 5-hydroxyamide] | 3 to 6 nM |
| CC(NC(=O)c1ccc(C(=O)NO)s1)c1ccccc1 (stereo not drawn) [Reference compound, reference compound] | 3.12 nM |

Now from value to molecule:

| IC50 | SMILES |
| --- | --- |
| 4.11 nM | CC(NC(=O)c1ccc(C(=O)NO)s1)c1ccc(-c2ccccc2F)s1 (stereo not drawn) [Example 3-12, Thiophene-2,5-dicarboxylic acid 2-({1-[5-(2-fluoro-phenyl)-thiophen-2-yl]-ethyl}-amide) 5-hydroxyamide] |
| 3 to 6 nM | C[C@@H](NC(=O)c1ccc(C(=O)NO)s1)c1ccc(N2CCOCC2)cc1 [Example 4-1, (R)-Thiophene-2,5-dicarboxylic acid 2-hydroxyamide 5-{[1-(4-morpholin-4-yl-phenyl)-ethyl]-amide}] |
| 3 to 6 nM | CC(NC(=O)c1ccc(C(=O)NO)s1)c1ccc(-c2cccc(F)c2)s1 (stereo not drawn) [Example 3-9, Thiophene-2,5-dicarboxylic acid 2-({1-[5-(3-fluoro-phenyl)-thiophen-2-yl]-ethyl}-amide) 5-hydroxyamide] |
| < 3 nM | CC(NC(=O)c1ccc(C(=O)NO)s1)c1ccc(N2CCCCC2)cc1 (stereo not drawn) [Example 4-3, Thiophene-2,5-dicarboxylic acid 2-hydroxyamide 5-{[1-(4-piperidin-1-yl-phenyl)-ethyl]-amide}] |

system: HT-29 cells (human colon carcinoma cell line); test: MTT assay on HT-29 human colon carcinoma cell line; format: cell-based; details: Homo sapiens, 120 h, MTT assay after 5 days, read-out: IC90 HT29
Method: To show the activity of the compounds according to this invention, their effects on a human colon carcinoma cell line was evaluated using a standard MTT-assay. MTT (3-(4,5-dimethylthiazol-2-yl)-2,5-diphenyl tetrazolium bromide) is widely used for the quantitative determination of cytotoxic effects or in vitro chemosensitivity of tumor cells. The assay is based on the cleavage of the yellow tetrazolium salt (MTT) to purple formazan crystals by metabolic active cells. For details, see Rubinstein, L. V., et al., J. Natl. Cancer Inst. 82 (1990) 1113-1118.
We proceeded as follows: HT-29 cells (human colon carcinoma cell line, ATCC-No. HTB-38) were cultivated in RPMI 1640 medium with GlutaMAX™ I (Invitrogen, Cat-No. 61870-010), 2.5% fetal calf serum (FCS, Sigma Cat-No. F4135 (FBS)), 2 mM glutamine, 100 units/ml penicillin, 100 μg/ml streptomycin (=Pen/Strep from Invitrogen Cat. No. 15140). For the assay the cells were seeded in 384 well plates, 900 cells per well, in the same medium. At the next day, the compounds (dissolved 10 mM in DMSO) were added in various concentrations ranging from 30 μM to 1.5 nM. After 5 days, the MTT assay was done mainly according to the instructions of the manufacturer (Cell proliferation kit I, MTT, from Roche Molecular Biochemicals). In brief: MTT labeling reagent was added to a final concentration of 0.5 mg/ml, added and incubated for 4 hrs at 37° C., 5% CO2. During this incubation time purple formazan crystals are formed. After addition of the solubilization solution (20% Sodium Dodecyl Sulfate (SDS) in 0.02 M HCl) the plates were incubated overnight at 37° C., 5% CO2. After careful mixing, the plates were measured in Victor 2 (scanning multiwell spectrophotometer, Wallac) at 550 nm.
A decrease in number of living cells results in a decrease in the total metabolic activity in the sample. The decrease directly correlates to the amount of purple colour resulting from the solubilization of the purple formazan crystals. Determination of IC90 was done using XL-fit (XLfit software (ID Business Solution Ltd., Guilford, Surrey, UK)).

| IC90 | SMILES |
| --- | --- |
| 100 to 500 nM | CC(NC(=O)c1ccc(C(=O)NO)s1)c1cccc(-c2ccc(F)cc2)c1 (stereo not drawn) [Example 2-8, Thiophene-2,5-dicarboxylic acid 2-{[1-(4′-fluoro-biphenyl-3-yl)-ethyl]-amide} 5-hydroxyamide] |
| 1120 nM | CC(NC(=O)c1ccc(C(=O)NO)s1)c1ccccc1 (stereo not drawn) [Reference compound, reference compound] |

same assay, conditions: MTT assay after 5 days, read-out: IC90 HT29

| IC90 | SMILES |
| --- | --- |
| 110 nM | COc1ccccc1-c1ccc(C(C)NC(=O)c2ccc(C(=O)NO)s2)s1 (stereo not drawn) [Example 3-1, Thiophene-2,5-dicarboxylic acid 2-hydroxyamide 5-({1-[5-(2-methoxy-phenyl)-thiophen-2-yl]-ethyl}-amide)] |
| 70 nM | CC(NC(=O)c1ccc(C(=O)NO)s1)c1cccc(-c2cc3ccccc3s2)c1 (stereo not drawn) [Example 2-14, Thiophene-2,5-dicarboxylic acid 2-{[1-(3-benzo[b]thiophen-2-yl-phenyl)-ethyl]-amide} 5-hydroxyamide] |
